# Where two headings read alike, the source gives them in different places.
# Columns and labels:
# Assay in all cases: Cell panel screen (CellTiter-Glo)
# Format in all cases: cell-based, human
# [1] = test system: A498; details: Homo sapiens, read-out: Percent Inhibition
# In short: (§1)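 Here, cancer cells cultured in medium with 10% FBS are treated for 72 h with each compound at 20 μM final. Viability is measured by ATP-dependent luminescence, and growth inhibition is calculated as a percentage against vehicle-only wells minus cell-free background.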
# [2] = test system: A704; details: Homo sapiens, read-out: Percent Inhibition
# In short: as §1
# [3] = test system: BT-474; details: Homo sapiens, read-out: Percent Inhibition
# In short: as §1
# [4] = test system: BT-549; details: Homo sapiens, read-out: Percent Inhibition
# In short: as §1
# [5] = test system: Bel-7402; details: Homo sapiens, read-out: Percent Inhibition
# In short: as §1
# [6] = test system: C3A; details: Homo sapiens, read-out: Percent Inhibition
# In short: as §1
# [7] = test system: C8166; details: Homo sapiens, read-out: Percent Inhibition
# In short: as §1
# [8] = test system: CCF-STTG1; details: Homo sapiens, read-out: Percent Inhibition
# In short: as §1
# [9] = test system: CW-2; details: Homo sapiens, read-out: Percent Inhibition
# In short: as §1
# [10] = test system: Colo 205; details: Homo sapiens, read-out: Percent Inhibition
# In short: as §1
# [11] = test system: HCC1395; details: Homo sapiens, read-out: Percent Inhibition
# In short: as §1
# [12] = test system: HCC1569; details: Homo sapiens, read-out: Percent Inhibition
# In short: as §1
# [13] = test system: HCC1599; details: Homo sapiens, read-out: Percent Inhibition
# In short: as §1
# [14] = test system: HCC1937; details: Homo sapiens, read-out: Percent Inhibition
# In short: as §1
# [15] = test system: HGC-27; details: Homo sapiens, read-out: Percent Inhibition
# In short: as §1
# [16] = test system: HPAF-II; details: Homo sapiens, read-out: Percent Inhibition
# In short: as §1
# [17] = test system: M059J; details: Homo sapiens, read-out: Percent Inhibition
# In short: as §1
# [18] = test system: NCI-H1770; details: Homo sapiens, read-out: Percent Inhibition
# In short: as §1
# [19] = test system: NCI-H2347; details: Homo sapiens, read-out: Percent Inhibition
# In short: as §1
# [20] = test system: NCI-H2405; details: Homo sapiens, read-out: Percent Inhibition
# In short: as §1
# [21] = test system: NCI-H28; details: Homo sapiens, read-out: Percent Inhibition
# In short: as §1
# [22] = test system: Panc 03.27; details: Homo sapiens, read-out: Percent Inhibition
# In short: as §1
# [23] = test system: RL95; details: Homo sapiens, read-out: Percent Inhibition
# In short: as §1
# [24] = test system: SW13; details: Homo sapiens, read-out: Percent Inhibition
# In short: as §1
# [25] = test system: T47D; details: Homo sapiens, read-out: Percent Inhibition
# In short: as §1
# [26] = test system: T98G; details: Homo sapiens, read-out: Percent Inhibition
# In short: as §1
# [27] = test system: TCCSUP; details: Homo sapiens, TCC-SUP, read-out: Percent Inhibition
# In short: as §1
# [28] = A498 (listed under Lung), 20 micromolar, 72 hrs
# [29] = A704 (Kidney), 20 micromolar, 72 hrs
# [30] = BT-474 (Breast), 20 micromolar, 72 hrs
# [31] = BT-549 (Breast), 20 micromolar, 72 hrs
# [32] = Bel-7402 (Liver), 20 micromolar, 72 hrs
# [33] = C3A (Liver), 20 micromolar, 72 hrs
# [34] = C8166 (Leukemia), 20 micromolar, 72 hrs
# [35] = CCF-STTG1 (Brain), 20 micromolar, 72 hrs
# [36] = CW-2 (Colon), 20 micromolar, 72 hrs
# [37] = Colo 205, 20 micromolar, 72 hrs
# [38] = HCC1395 (Breast), 20 micromolar, 72 hrs
# [39] = HCC1569 (Breast), 20 micromolar, 72 hrs
# [40] = HCC1599 (Breast), 20 micromolar, 72 hrs
# [41] = HCC1937 (Breast), 20 micromolar, 72 hrs
# [42] = HGC-27 (Stomach), 20 micromolar, 72 hrs
# [43] = HPAF-II (Pancreas), 20 micromolar, 72 hrs
# [44] = M059J (Brain), 20 micromolar, 72 hrs
# [45] = NCI-H1770 (Lung), 20 micromolar, 72 hrs
# [46] = NCI-H2347 (Lung), 20 micromolar, 72 hrs
# [47] = NCI-H2405 (Lung), 20 micromolar, 72 hrs
# [48] = NCI-H28 (Lung), 20 micromolar, 72 hrs
# [49] = PANC-03-27, Panc 03.27 (Pancreas), 20 micromolar, 72 hrs
# [50] = RL95 (Uterus), 20 micromolar, 72 hrs
# [51] = SW13 (Adrenal gland), 20 micromolar, 72 hrs
# [52] = T47D (Breast), 20 micromolar, 72 hrs
# [53] = T98G (Brain), 20 micromolar, 72 hrs
# [54] = TCCSUP (Urinary bladder), 20 micromolar, 72 hrs
smiles,measurement,setting,value
CC(C)=CCC/C(C)=C/Cc1c(O)c(CC=C(C)C)c2c(c1O)C(=O)C1=C[C@@H]3C[C@H]4C(C)(C)O[C@@](C/C=C(\C)C(=O)O)(C3=O)[C@@]14O2 [GB63],inhibition at 20 µM,[1]; [28],98%
same,inhibition at 20 µM,[2]; [29],99%
same,inhibition at 20 µM,[3]; [30],99%
same,inhibition at 20 µM,[4]; [31],99%
same,inhibition at 20 µM,[5]; [32],99%
same,inhibition at 20 µM,[6]; [33],99%
same,inhibition at 20 µM,[7]; [34],100%
same,inhibition at 20 µM,[8]; [35],99%
same,inhibition at 20 µM,[9]; [36],99%
same,inhibition at 20 µM,[10]; [37],99%
same,inhibition at 20 µM,[11]; [38],99%
same,inhibition at 20 µM,[12]; [39],99%
same,inhibition at 20 µM,[13]; [40],99%
same,inhibition at 20 µM,[14]; [41],100%
same,inhibition at 20 µM,[15]; [42],99%
same,inhibition at 20 µM,[16]; [43],99%
same,inhibition at 20 µM,[17]; [44],99%
same,inhibition at 20 µM,[18]; [45],99%
same,inhibition at 20 µM,[19]; [46],98%
same,inhibition at 20 µM,[20]; [47],99%
same,inhibition at 20 µM,[21]; [48],99%
same,inhibition at 20 µM,[22]; [49],99%
same,inhibition at 20 µM,[23]; [50],99%
same,inhibition at 20 µM,[24]; [51],99%
same,inhibition at 20 µM,[25]; [52],99%
same,inhibition at 20 µM,[26]; [53],99%
same,inhibition at 20 µM,[27]; [54],99%
"CC(C)=CCC[C@@]1(C)C=Cc2c(O)c3c(c(C/C=C(\C)CO)c2O1)O[C@]12C(=C[C@@H]4C[C@H]1C(C)(C)O[C@@]2(C/C=C(/C)C(=O)O)C4=O)C3=O [GB40, 35-hydroxyepigambogic acid]",inhibition at 20 µM,[1]; [28],98%
same,inhibition at 20 µM,[2]; [29],98%
same,inhibition at 20 µM,[3]; [30],99%
same,inhibition at 20 µM,[4]; [31],99%
same,inhibition at 20 µM,[5]; [32],99%
same,inhibition at 20 µM,[6]; [33],98%
same,inhibition at 20 µM,[7]; [34],99%
same,inhibition at 20 µM,[8]; [35],99%
same,inhibition at 20 µM,[9]; [36],99%
same,inhibition at 20 µM,[10]; [37],99%
same,inhibition at 20 µM,[11]; [38],98%
same,inhibition at 20 µM,[12]; [39],99%
same,inhibition at 20 µM,[13]; [40],99%
same,inhibition at 20 µM,[14]; [41],99%
same,inhibition at 20 µM,[15]; [42],99%
same,inhibition at 20 µM,[16]; [43],99%
same,inhibition at 20 µM,[17]; [44],99%
same,inhibition at 20 µM,[18]; [45],99%
same,inhibition at 20 µM,[19]; [46],98%
same,inhibition at 20 µM,[20]; [47],99%
same,inhibition at 20 µM,[21]; [48],98%
same,inhibition at 20 µM,[22]; [49],99%
same,inhibition at 20 µM,[23]; [50],99%
same,inhibition at 20 µM,[24]; [51],98%
same,inhibition at 20 µM,[25]; [52],99%
same,inhibition at 20 µM,[26]; [53],99%
same,inhibition at 20 µM,[27]; [54],99%
"CC(C)=CCC[C@@]1(C)C=Cc2c(O)c3c(c(CCC(C)(C)O)c2O1)O[C@]12C(=C[C@@H]4C[C@H]1C(C)(C)O[C@@]2(C/C=C(/C)C(=O)O)C4=O)C3=O [GB39, 33-hydroxyepigambogic acid]",inhibition at 20 µM,[1]; [28],99%
same,inhibition at 20 µM,[2]; [29],99%
same,inhibition at 20 µM,[3]; [30],100%
same,inhibition at 20 µM,[4]; [31],100%
same,inhibition at 20 µM,[5]; [32],100%
same,inhibition at 20 µM,[6]; [33],99%
same,inhibition at 20 µM,[7]; [34],100%
same,inhibition at 20 µM,[8]; [35],100%
same,inhibition at 20 µM,[9]; [36],100%
same,inhibition at 20 µM,[10]; [37],100%
same,inhibition at 20 µM,[11]; [38],100%
same,inhibition at 20 µM,[12]; [39],100%
same,inhibition at 20 µM,[13]; [40],100%
same,inhibition at 20 µM,[14]; [41],100%
same,inhibition at 20 µM,[15]; [42],100%
same,inhibition at 20 µM,[16]; [43],100%
same,inhibition at 20 µM,[17]; [44],100%
same,inhibition at 20 µM,[18]; [45],100%
same,inhibition at 20 µM,[19]; [46],99%
same,inhibition at 20 µM,[20]; [47],100%
same,inhibition at 20 µM,[21]; [48],99%
same,inhibition at 20 µM,[22]; [49],100%
same,inhibition at 20 µM,[23]; [50],100%
same,inhibition at 20 µM,[24]; [51],100%
same,inhibition at 20 µM,[25]; [52],100%
same,inhibition at 20 µM,[26]; [53],100%
same,inhibition at 20 µM,[27]; [54],100%
CC(C)=CCC/C(C)=C/Cc1c(O)c(CC=C(C)C)c2c(c1O)C(=O)C1=C[C@@H]3C[C@H]4C(C)(C)O[C@@](C/C=C(\C)C=O)(C3=O)[C@@]14O2 [GB49],inhibition at 20 µM,[1]; [28],88%
same,inhibition at 20 µM,[2]; [29],98%
same,inhibition at 20 µM,[3]; [30],99%
same,inhibition at 20 µM,[4]; [31],99%
same,inhibition at 20 µM,[5]; [32],98%
same,inhibition at 20 µM,[6]; [33],97%
same,inhibition at 20 µM,[7]; [34],99%
same,inhibition at 20 µM,[8]; [35],99%
same,inhibition at 20 µM,[9]; [36],99%
same,inhibition at 20 µM,[10]; [37],100%
same,inhibition at 20 µM,[11]; [38],99%
same,inhibition at 20 µM,[12]; [39],99%
same,inhibition at 20 µM,[13]; [40],99%
same,inhibition at 20 µM,[14]; [41],99%
same,inhibition at 20 µM,[15]; [42],98%
same,inhibition at 20 µM,[16]; [43],98%
same,inhibition at 20 µM,[17]; [44],99%
same,inhibition at 20 µM,[18]; [45],99%
same,inhibition at 20 µM,[19]; [46],98%
same,inhibition at 20 µM,[20]; [47],99%
same,inhibition at 20 µM,[21]; [48],97%
same,inhibition at 20 µM,[22]; [49],98%
same,inhibition at 20 µM,[23]; [50],99%
same,inhibition at 20 µM,[24]; [51],99%
same,inhibition at 20 µM,[25]; [52],99%
same,inhibition at 20 µM,[26]; [53],99%
same,inhibition at 20 µM,[27]; [54],99%
CC(C)=CCC/C(C)=C/Cc1c(O)c(CC=C(C)C)c2c(c1O)C(=O)C1=C[C@@H]3C[C@H]4C(C)(C)O[C@@](CC=C(C)C)(C3=O)[C@@]14O2 [GB32],inhibition at 20 µM,"[1]; A498, 72 h",98%
same,inhibition at 20 µM,"[2]; A704, 72 h",99%
same,inhibition at 20 µM,"[3]; BT-474, 72 h",99%
same,inhibition at 20 µM,"[4]; BT-549, 72 h",99%
same,inhibition at 20 µM,"[5]; Bel-7402, 72 h",99%
same,inhibition at 20 µM,"[6]; C3A, 72 h",99%
same,inhibition at 20 µM,"[7]; C8166, 72 h",99%
same,inhibition at 20 µM,"[8]; CCF-STTG1, 72 h",99%
same,inhibition at 20 µM,"[9]; CW-2, 72 h",99%
same,inhibition at 20 µM,"[10]; COLO 205, 72 h",99%
same,inhibition at 20 µM,"[11]; HCC1395, 72 h",99%
same,inhibition at 20 µM,"[12]; HCC1569, 72 h",99%
same,inhibition at 20 µM,"[13]; HCC1599, 72 h",100%
same,inhibition at 20 µM,"[14]; HCC1937, 72 h",99%
same,inhibition at 20 µM,"[15]; HGC-27, 72 h",99%
same,inhibition at 20 µM,"[16]; HPAF-II, 72 h",99%
same,inhibition at 20 µM,"[17]; M059J, 72 h",99%
same,inhibition at 20 µM,"[18]; NCI-H1770, 72 h",99%
same,inhibition at 20 µM,"[19]; NCI-H2347, 72 h",98%
same,inhibition at 20 µM,"[20]; NCI-H2405, 72 h",99%
same,inhibition at 20 µM,"[21]; NCI-H28, 72 h",99%
same,inhibition at 20 µM,"[22]; PANC-03-27, 72 h",99%
same,inhibition at 20 µM,[23]; 72 h,99%
same,inhibition at 20 µM,"[24]; SW13, 72 h",99%
same,inhibition at 20 µM,"[25]; T47D, 72 h",99%
same,inhibition at 20 µM,"[26]; T98G, 72 h",99%
same,inhibition at 20 µM,[27]; 72 h,99%
